According to ChEMBL document CHEMBL1152999, “Synthesis and anti-HSV-1 evaluation of some pyrazoles and fused pyrazolopyrimidines” (2009):

Key:
Human alphaherpesvirus 1 [1] = assay: Antiviral activity against HSV1 infected in african green monkey Vero cells assessed as reduction in virus plaque formation at 10 ug per 10^5 cells by plaque infectivity assay; assay type: functional; parameters: scale not given: the % may be the effect or the level left
Human alphaherpesvirus 1 [2] = assay: Antiviral activity against HSV1 infected in african green monkey Vero cells assessed as reduction in virus plaque formation at 20 ug per 10^5 cells by plaque infectivity assay; assay type: functional; parameters: scale not given: the % may be the effect or the level left

Compound | Activity (Human alphaherpesvirus 1 [1]) [%] | Activity (Human alphaherpesvirus 1 [2]) [%]
N#Cc1cnn(-c2ncnc3sc4c(c23)-c2ccccc2CC4)c1N | 16.6 | 0
CC(=O)OC[C@@H](OC(C)=O)[C@H](OC(C)=O)[C@@H](OC(C)=O)[C@H](OC(C)=O)c1nc2c3cnn(-c4ncnc5sc6c(c45)-c4ccccc4CC6)c3ncn2n1 | 29 | 57
Cc1nc2c(cnn2-c2ncnc3sc4c(c23)-c2ccccc2CC4)c(=O)[nH]1 | 44.4 | 0
OC[C@@H](O)[C@H](O)[C@@H](O)[C@H](O)/C=N/Nc1ncnc2c1cnn2-c1ncnc2sc3c(c12)-c1ccccc1CC3 | 43 | 99
O=c1[nH]cnc2c1cnn2-c1ncnc2sc3c(c12)-c1ccccc1CC3 | 47.7 | 0
Nc1nc2c(ncn2COCCO)c(=O)[nH]1 [ACYCLOVIR] | 12 | 28
N#Cc1cnn(-c2ncnc3sc4c(c23)-c2ccccc2CC4)c1NC=O | 28.5 | 48
CC(=O)OC[C@@H](OC(C)=O)[C@H](OC(C)=O)[C@@H](OC(C)=O)[C@@H](/C=N/Nc1ncnc2c1cnn2-c1ncnc2sc3c(c12)-c1ccccc1CC3)OC(C)=O | 34 | 69
Nc1ncnc2c1cnn2-c1ncnc2sc3c(c12)-c1ccccc1CC3 | 44.6 | 0
NNc1ncnc2c1cnn2-c1ncnc2sc3c(c12)-c1ccccc1CC3 | 56 | 0
CC(=O)Nc1c(C#N)cnn1-c1ncnc2sc3c(c12)-c1ccccc1CC3 | 0 | 67.6
